The source of these data is the Kinase Knowledgebase extract (Sharma et al. 2016).

This experiment addresses MAPK14 (human) (UniProt Q16539). Kind of experiment: Inhibition of MAPK14 Kinase Activity. Particulars: for inhibition: concentration not given here.

Chain of MAPK14 (human) (Q16539 whole entry, looked up): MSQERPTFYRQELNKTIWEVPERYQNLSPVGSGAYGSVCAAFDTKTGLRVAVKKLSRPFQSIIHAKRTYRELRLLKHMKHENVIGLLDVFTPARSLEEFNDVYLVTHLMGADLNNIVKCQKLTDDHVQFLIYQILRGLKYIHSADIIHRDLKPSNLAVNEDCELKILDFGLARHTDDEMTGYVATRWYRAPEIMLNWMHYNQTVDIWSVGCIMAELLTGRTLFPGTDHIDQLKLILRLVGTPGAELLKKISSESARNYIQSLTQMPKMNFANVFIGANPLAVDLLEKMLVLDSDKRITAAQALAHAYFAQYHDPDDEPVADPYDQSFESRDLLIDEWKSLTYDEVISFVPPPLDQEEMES

Turning to `CCCNC(=O)CN1CCN(C(=O)c2cc(C(C)(C)C)sc2NC(=O)Nc2cccc(Cl)c2Cl)C(C)(C)C1=O`, the IC50 is under 5 µM.
The molecule `CC(C)(C)c1cc(C(=O)N2CCS(=O)(=O)CC2)c(NC(=O)Nc2ccc(F)c(Cl)c2Cl)s1` returned an IC50 of under 5 µM.
`CC(C)(C)c1cc(C(=O)N2CCCC(O)C2)c(NC(=O)Nc2cccc(Cl)c2Cl)s1` (stereo not given) displayed an IC50 of under 5 µM.
Still for that read-out and setting: to `CC(=O)N1CCCN(C(=O)c2cc(C(C)(C)C)sc2NC(=O)Nc2cccc(Cl)c2Cl)CC1` belongs under 5 µM.
On the same count and under the same terms, to `COc1ccc(CN2CCN(C(=O)c3cc(C(C)(C)C)sc3NC(=O)Nc3cccc(Cl)c3Cl)C(C)(C)C2=O)cc1` belongs under 5 µM; to `CCc1ccccc1NC(=O)Nc1sc(C(C)(C)C)cc1C(=O)N1CCC(=O)N(CCN(C)C)CC1`, under 5 µM; to `CON(C)C(=O)CN1CCN(C(=O)c2[nH]c(C(C)(C)C)cc2NC(=O)Nc2cccc(Cl)c2Cl)C(C)(C)C1=O`, under 5 µM.
On to `CC(C)(C)c1cc(C(=O)N2CCS(=O)(=O)CC2)c(NC(=O)Nc2ccc3c(c2Cl)OCO3)s1`, for which the IC50 is under 5 µM.
`COc1ccc(Cl)c(NC(=O)Nc2cc(C(C)(C)C)sc2C(=O)N2CCNC(=O)C2(C)C)c1` registered an IC50 of under 5 µM.
On the same count and under the same terms, as for `CCC1C(=O)NCCN1C(=O)c1cc(C(C)(C)C)sc1NC(=O)Nc1ccc(F)c(Cl)c1Cl` (stereo not given), the figure is under 5 µM; as for `CC1(C)CN(C(=O)c2cc(C(C)(C)C)sc2NC(=O)Nc2cccc(Cl)c2Cl)CCNC1=O`, under 5 µM; as for `CON(C)C(=O)CN1CCN(C(=O)c2cc(C(C)(C)C)sc2NC(=O)Nc2ccc(F)c(Cl)c2Cl)C(C)(C)C1=O`, under 5 µM.
`CCN(CC)CCNC(=O)CN1CCN(C(=O)c2cc(C(C)(C)C)sc2NC(=O)Nc2cccc(Cl)c2Cl)C(C)(C)C1=O` gave an IC50 of under 5 µM.
Molecule `CC(C)(C)c1cc(C(=O)N2CCNC(=O)CC2)c(NC(=O)Nc2ccc(CN)c3ccccc23)s1` displayed an inhibition of 76 to 100%.
Molecule `CONC(=O)CN1CCN(C(=O)c2cc(C(C)(C)C)sc2NC(=O)Nc2cccc(Cl)c2Cl)C(C)(C)C1=O` had an IC50 of under 5 µM.
The same measure, in the same setting: as for `CN(C)CCN1CCN(C(=O)c2sc(C(C)(C)C)cc2NC(=O)Nc2cccc(Cl)c2Cl)C(C)(C)C1=O`, the figure is under 5 µM; as for `COC(=O)N1CCN(C(=O)c2cc(C(C)(C)C)sc2NC(=O)Nc2cccc(Cl)c2Cl)CC1`, under 5 µM.
Same read-out and setting: as for `CN(C)CCN1CCN(C(=O)c2cc(C(C)(C)C)sc2NC(=O)Nc2ccccc2C(F)(F)F)CCC1=O`, the figure is under 5 µM; as for `CCC1(C)C(=O)NCCN1C(=O)c1cc(C(C)(C)C)sc1NC(=O)Nc1ccc(F)c(Cl)c1Cl` (stereo not given), under 5 µM.
The molecule `CN1CCN(C(=O)c2cc(C(C)(C)C)sc2NC(=O)Nc2cccc(Cl)c2Cl)C(C)(C)C1=O` displayed an IC50 of under 5 µM.
In turn, `CC(C)(C)c1cc(C(=O)N2CCN(CC(=O)NO)C(=O)C2(C)C)c(NC(=O)Nc2ccc(F)c(Cl)c2Cl)s1` showed an IC50 of under 5 µM.
The same measure, in the same setting: as for `CC(C)(C)c1cc(C(=O)N2CCN(CC(=O)NCC(O)CO)C(=O)C2(C)C)c(NC(=O)Nc2cccc(Cl)c2Cl)s1` (stereo not given), the figure is under 5 µM; as for `CC(C)(C)c1cc(C(=O)N2CCNC(=O)CC2)c(NC(=O)Nc2ccccc2Cl)s1`, under 5 µM.
As for `CC(C)(C)c1cc(C(=O)N2CCNC(=O)CC2)c(NC(=O)Nc2ccc(C#N)c(Cl)c2)s1`, the inhibition was in the range of 76 to 100%.
`CC(C)(C)c1nc(C(=O)N2CCNC(=O)CC2)c(NC(=O)Nc2cccc(Cl)c2Cl)s1` came in with an IC50 of under 5 µM.
In turn, `CN(C)CCNC(=O)CN1CCN(C(=O)c2cc(C(C)(C)C)sc2NC(=O)Nc2ccc(F)cc2Cl)C(C)(C)C1=O` registered an IC50 of under 5 µM.
Regarding `Cc1noc(CN2CCN(C(=O)c3cc(C(C)(C)C)sc3NC(=O)Nc3cccc(Cl)c3Cl)C(C)(C)C2=O)n1`, the IC50 was under 5 µM.
The same measure, in the same setting: as for `CC(C)(C)c1cc(C(=O)N2CCNC(=O)CC2)c(NC(=O)Nc2cccnc2Cl)s1`, the figure is under 5 µM; as for `COC(=O)CC1(C)C(=O)NCCN1C(=O)c1sc(C(C)(C)C)cc1NC(=O)Nc1ccc(F)c(F)c1Cl` (stereo not given), under 5 µM; as for `CC(C)(C)c1cc(NC(=O)Nc2ccc(F)c(Cl)c2Cl)c(C(=O)N2CCNC(=O)C2(C)C)o1`, under 5 µM.
As to `CC(C)(C)c1cc(C(=O)N2CCNC(=O)CC2)c(NC(=O)Nc2ccc(CN)cc2)s1`, the inhibition was 51 to 75%.
Molecule `CN1CCN(C(=O)c2cc(C(C)(C)C)sc2NC(=O)Nc2cccc(Cl)c2Cl)C(C)(CC(N)=O)C1=O` (stereo not given) displayed an IC50 of under 5 µM.
On the same count and under the same terms, to `CCC1(C)C(=O)N(CC(=O)NCCN(C)C)CCN1C(=O)c1cc(C(C)(C)C)sc1NC(=O)Nc1ccc(F)cc1Cl` (stereo not given) belongs under 5 µM; to `CC(C)(C)c1cc(C(=O)N2CCNC(=O)C2(C)C)c(NC(=O)Nc2ccccc2Cl)s1`, under 5 µM; to `Cc1c(F)cccc1NC(=O)Nc1sc(C(C)(C)C)cc1C(=O)N1CCNC(=O)C1(C)CCO` (stereo not given), under 5 µM.
Still for that read-out and setting: as for `O=C(Nc1cc(C(F)(F)F)ccc1C(=O)N1CCS(=O)(=O)CC1)Nc1cccc(Cl)c1Cl`, the figure is under 5 µM; as for `CC(C)(C)c1cc(C(=O)N2CCNC(=O)CC2)c(NC(=O)Nc2ccccc2OC(F)(F)F)s1`, under 5 µM.
On the same count and under the same terms, as for `CN(C)CCNC(=O)CN1CCN(C(=O)c2cc(C(C)(C)C)sc2NC(=O)Nc2cccc(Cl)c2Cl)C(C)(C)C1=O`, the figure is under 5 µM; as for `CCC1(C)C(=O)N(CC(=O)NCCN(C)C)CCN1C(=O)c1sc(C(C)(C)C)cc1NC(=O)Nc1cccc(Cl)c1Cl` (stereo not given), under 5 µM.
As for `COC(=O)CN1CCN(C(=O)c2cc(C(C)(C)C)sc2NC(=O)Nc2cccc(Cl)c2Cl)C(C)(C)C1=O`, the IC50 was under 5 µM.
The molecule `CC(C)(C)c1cc(NC(=O)Nc2cccc(Cl)c2Cl)c(C(=O)N2CCNC(=O)CC2)[nH]1` yielded an IC50 of under 5 µM.
Take `CN(C)CCN1CCN(C(=O)c2cc(C(C)(C)C)sc2NC(=O)Nc2ccncc2Cl)C(C)(C)C1=O`: the IC50 was under 5 µM.
Regarding `CC(C)(C)c1cc(C(=O)N2CCNCC2)c(NC(=O)Nc2cccc(Cl)c2Cl)s1`, the IC50 was under 5 µM.
Same read-out and setting: to `CN(C)CCN1CCN(C(=O)c2cc(C(C)(C)C)sc2NC(=O)Nc2ccc(F)cc2Cl)C(C)(C)C1=O` belongs under 5 µM.
Regarding `COCCN1CCN(C(=O)c2cc(C(C)(C)C)sc2NC(=O)Nc2cccc(Cl)c2Cl)CCC1=O`, the inhibition is 76 to 100%.
The molecule `CC(C)(C)c1cc(C(=O)N2CCN(CCN3CCOCC3)C(=O)C2(C)C)c(NC(=O)Nc2cccc(Cl)c2Cl)s1` registered an IC50 of under 5 µM.
Turning to `CC(C)(C)c1cc(NC(=O)Nc2ccc(F)c(Cl)c2Cl)c(C(=O)N2CCNC(=O)C2(C)C)[nH]1`, the IC50 is under 5 µM.
On the same count and under the same terms, to `CC(C)(C)c1cc(C(=O)N2CCNC(=O)C2)c(NC(=O)Nc2ccc(F)c(Cl)c2Cl)s1` belongs under 5 µM; to `CC(C)(C)c1cc(C(=O)N2CCN(CC(N)=O)C(=O)C2(C)CC(N)=O)c(NC(=O)Nc2cccc(Cl)c2Cl)s1` (stereo not given), under 5 µM.
Same read-out and setting: as for `CC(C)(C)c1cc(C(=O)N2CCNC(=O)C2(C)C)c(NC(=O)Nc2cccnc2Cl)s1`, the figure is under 5 µM.
`CC(C)(C)c1cc(C(=O)N2CCNC(=O)CC2)c(NC(=O)NC2CCNCC2)s1` yielded an inhibition of 0 to 25%.
Turning to `CC(C)(C)c1cc(C(=O)N2CCNC(=O)C(N)C2)c(NC(=O)Nc2cccc(Cl)c2Cl)s1` (stereo not given), the inhibition lay in the range of 76 to 100%.
The molecule `CONC(=O)CC1(C)C(=O)NCCN1C(=O)c1cc(C(C)(C)C)sc1NC(=O)Nc1ccc(F)c(Cl)c1Cl` (stereo not given) showed an IC50 of under 5 µM.
The same measure, in the same setting: to `CC(C)(C)c1cc(NC(=O)Nc2ccc(F)c(Cl)c2Cl)c(C(=O)N2CCNS(=O)(=O)CC2)[nH]1` belongs under 5 µM; to `CC(C)(C)c1cc(C(=O)N2CCNC(=O)C2(C)C)c(NC(=O)Nc2ccc(OC(F)F)c(Cl)c2Cl)s1`, under 5 µM.
Still for that read-out and setting: as for `CONC(=O)CN1CCN(C(=O)c2cc(C(C)(C)C)sc2NC(=O)Nc2cccc(Cl)c2Cl)C(C)(CC(=O)NOC)C1=O` (stereo not given), the figure is under 5 µM; as for `CN(C)CCNC(=O)CN1CCN(C(=O)c2sc(C(C)(C)C)cc2NC(=O)Nc2ccc(F)c(F)c2Cl)C(C)(C)C1=O`, under 5 µM; as for `CN(C)C(=O)CN1CCN(C(=O)c2cc(C(C)(C)C)sc2NC(=O)Nc2cccc(Cl)c2Cl)C(C)(C)C1=O`, under 5 µM.
In turn, `CC(C)(C)c1nc(C(=O)N2CCC(=O)N(CCN)CC2)c(NC(=O)Nc2cccc(Cl)c2Cl)s1` had an IC50 of under 5 µM.
Molecule `CCC(C)(C)c1cc(NC(=O)Nc2ccc(F)c(Cl)c2Cl)c(C(=O)N2CCNC(=O)C2(C)C)[nH]1` showed an IC50 of under 5 µM.
The same measure, in the same setting: as for `CC1(C)OCC(CNC(=O)CN2CCN(C(=O)c3cc(C(C)(C)C)sc3NC(=O)Nc3cccc(Cl)c3Cl)C(C)(C)C2=O)O1` (stereo not given), the figure is under 5 µM.
On to `CC(C)(C)c1cc(C(=O)N2CCNC(=O)CC2)c(NC(=O)Nc2ccc(OC(F)F)c(Cl)c2Cl)s1`, for which the IC50 is under 5 µM.
For the molecule `CC(C)(C)c1cc(NC(=O)Nc2cccc(Cl)c2Cl)c(C(=O)N2CCN(CC(N)=O)C(=O)C2(C)C)[nH]1`, the concentration for half-maximal inhibition (IC50) was under 5 µM.
Consider `CC(C)(C)OC(=O)N1CCN(C(=O)c2cc(C(C)(C)C)sc2NC(=O)Nc2cccc(Cl)c2Cl)CC1`, for which the IC50 was under 5 µM.
The molecule `CN(C)CCN1CCN(C(=O)c2cc(C(C)(C)C)sc2NC(=O)Nc2ccc(F)c(Cl)c2Cl)C(C)(C)C1=O` gave an IC50 of under 5 µM.
On to `CC(C)(C)c1cc(C(=O)N2CCNC(=O)C2(C)C)c(NC(=O)Nc2cccc3ccccc23)s1`, for which the IC50 was under 5 µM.
Molecule `CC(C)(C)c1cc(C(=O)N2CCNS(=O)(=O)CC2)c(NC(=O)NC2(c3ccccc3)CC2)s1` displayed an inhibition of 26 to 50%.
On to `CNC(=O)Nc1cc(C(C)(C)C)sc1C(=O)N1CCNC(=O)CC1`, for which the inhibition fell in the range of 0 to 25%.
As for `CN(C)CCN1CCN(C(=O)c2nc(C(C)(C)C)sc2NC(=O)Nc2cccc(Cl)c2Cl)CCC1=O`, the IC50 is under 5 µM.
Still for that read-out and setting: to `CCc1ccccc1NC(=O)Nc1sc(C(C)(C)C)cc1C(=O)N1CCNC(=O)C1(C)C` belongs under 5 µM.
For `CC(C)(C)c1cc(NC(=O)Nc2cccc(Cl)c2Cl)c(C(=O)N2CCNC(=O)CC2)s1`, the inhibition was in the range of 76 to 100%.
Consider `CCC1(C)C(=O)N(CC(=O)N(C)OC)CCN1C(=O)c1cc(C(C)(C)C)sc1NC(=O)Nc1cccc(Cl)c1Cl` (stereo not given), for which the IC50 was under 5 µM.
With `CN(C)CCN1CCN(C(=O)c2[nH]c(C(C)(C)C)cc2NC(=O)Nc2cccc(Cl)c2Cl)CCC1=O`, the IC50 was under 5 µM.
Turning to `CC(C)(C)c1cc(C(=O)N2CCNS(=O)(=O)CC2)c(NC(=O)Nc2cnc(O)c3ccccc23)s1`, the inhibition lay in the range of 26 to 50%.
Regarding `CC(C)(C)c1cc(C(=O)N2CCNC(=O)CC2)c(NC(=O)Nc2c(Cl)cncc2Cl)s1`, the IC50 is under 5 µM.
